Data taken from ChEMBL document CHEMBL1158225, “Antiplatelet flavonoids from seeds of Psoralea corylifolia” (J Nat Prod, 1996).
The source made the active and inactive calls. The calls are words filed in the database; no cut-off is given here.

What was measured:
Type in all cases: functional, cell-based
Conditions in all cases: Oryctolagus cuniculus
[1] = Antiplatelet activity against rabbit platelet assessed as inhibition of collagen-induced platelet aggregation preincubated for 3 mins by turbidimetric method
[2] = (§1) Antiplatelet activity against rabbit platelet assessed as inhibition of platelet-activating factor-induced platelet aggregation preincubated for 3 mins by turbidimetric method
[3] = Antiplatelet activity against rabbit platelet assessed as inhibition of arachidonic acid-induced platelet aggregation preincubated for 3 mins by turbidimetric method
Platelet [4] = assay: as §1
Platelet [5] = assay: Antiplatelet activity against rabbit platelet assessed as inhibition of collagen-induced platelet aggregation at 300 uM preincubated for 3 mins by turbidimetric method
Platelet [6] = assay: Antiplatelet activity against rabbit platelet assessed as inhibition of arachidonic acid-induced platelet aggregation at 300 uM preincubated for 3 mins by turbidimetric method
Platelet [7] = assay: Antiplatelet activity against rabbit platelet assessed as inhibition of platelet-activating factor-induced platelet aggregation at 300 uM preincubated for 3 mins by turbidimetric method

IC50 [1] [µM]	IC50 [2] [nM]	IC50 [3] [µM]	Compound	other results
30.5	–	–	CC(=O)Oc1ccccc1C(=O)O [ASPIRIN]	–
–	1100	–	CCCCCCCCCCCCCCCCCCNC(=O)OCC(COP(=O)([O-])OCC[n+]1ccsc1)OC (configuration not stated)	–
65.1	41600	0.5	CC(C)=CCc1c(O)ccc(C(=O)/C=C/c2ccc(O)cc2)c1O [ISOBAVACHALCONE]	–
62.4	2500	7.8	CC(C)=CCc1cc(-c2coc3cc(O)ccc3c2=O)ccc1O [NEOBAVAISOFLAVONE]	Activity (Platelet [4]): Dose-dependent effect
–	–	–	CC(C)=CCc1cc2c(cc1O)O[C@H](c1ccc(O)cc1)CC2=O	Activity (Platelet [5]): inactive; Activity (Platelet [6]): inactive; Activity (Platelet [7]): inactive
